Laboratory results published in ChEMBL document CHEMBL1150709, “Irisones A and B: two new isoflavones from Iris missouriensis” (1987).

Test system: P388
Assay: Cytotoxicity against mouse P388 cells
Assay type: functional
Conditions: read-out: ED50 (the source's name)

Question: `O=c1c(-c2ccccc2O)coc2cc3c(c(O)c12)OCO3` [IRISONE B] was tested. Which EC50 did it give?
Answer: The EC50 was > 50 µg/mL.

Question: `COc1ccccc1-c1coc2cc(O)c(OC)c(O)c2c1=O` was tested. Which EC50 did it give?
Answer: The EC50 was > 50 µg/mL.

Question: For `COc1ccccc1-c1coc2cc3c(c(O)c2c1=O)OCO3` [IRISONE A], which EC50 is on record?
Answer: Its EC50 is > 50 µg/mL.
